Among the test systems are A498; A549; ACHN; CAKI-1; HOP-62; Hs-578T; K562; KM12; Malme-3M; NCI-H226; NCI-H460; OVCAR-5; RXF 393; SK-MEL-2; SK-MEL-5; TK-10; U-251; UACC-257; SK-OV-3.
What all share (test): DTP human tumour cell line panel, 48 h

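Assay format: 96-well plates, 48-hour exposure. GI50 is the concentration that inhibits growth by half.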 Active and inactive are the calls of the source. Cut-off read from the data, not from the text of the source: active = GI50 up to about 1.1 µM and inactive = higher. Where only a bound is given, the exact number is not on record here.

On to `COc1ccc2oc(=O)cc(C)c2c1`, for which the GI50 in the test with A498, in the test with A549, in the test on ACHN, in the test with CAKI-1, in the test on HOP-62 and in the test on Hs-578T was > 100 µM (inactive) in each case. Also, the GI50 in the test with K562, in the test on KM12, in the test on Malme-3M, in the test on NCI-H226, in the test with NCI-H460 and with OVCAR-5 was > 100 µM (inactive) throughout. The GI50 in the test with RXF 393, in the test on SK-MEL-2, in the test with SK-MEL-5, in the test with TK-10, in the test with U-251 and in the test with UACC-257 was > 100 µM (inactive) in each case.
With `NC(C(=O)OC(=O)c1ccccc1)C(=O)OC(=O)c1ccccc1`, the GI50 in the test on A498 was > 100 µM (inactive); in the test with A549, > 100 µM (inactive); in the test on ACHN it was > 100 µM (inactive); in the test on CAKI-1 it was > 100 µM (inactive); with HOP-62, > 100 µM (inactive); with Hs-578T it was 59.3 µM (inactive). For the same compound, the GI50 with K562, with KM12, in the test with Malme-3M, in the test with NCI-H226, in the test with NCI-H460 and in the test with OVCAR-5 was > 100 µM (inactive) each time. Also, the GI50 in the test with RXF 393, with SK-MEL-2, with SK-MEL-5, with TK-10, in the test with U-251 and in the test with UACC-257 was > 100 µM (inactive) throughout.
For the compound `CCCCCCCC1(N=[N+]=[N-])C(=O)c2ccccc2N(C)C1=O` (configuration not stated), the GI50 with A498 was > 100 µM (inactive); with A549, 68.5 µM (inactive); in the test on ACHN, 75 µM (inactive); in the test on CAKI-1, > 100 µM (inactive); in the test on HOP-62, > 100 µM (inactive); in the test on Hs-578T it was > 100 µM (inactive). For the same compound, the GI50 was > 100 µM (inactive) in the test with KM12; > 100 µM (inactive) in the test with Malme-3M; > 100 µM (inactive) in the test on NCI-H226; > 100 µM (inactive) in the test with NCI-H460; > 100 µM (inactive) in the test with OVCAR-5; 69.8 µM (inactive) with RXF 393. For the same compound, the GI50 is 69.8 µM (inactive) in the test with SK-MEL-5; > 100 µM (inactive) with SK-OV-3; > 100 µM (inactive) in the test on TK-10; > 100 µM (inactive) in the test on U-251; 57.8 µM (inactive) with UACC-257.
As to `CCOC(=O)c1ccc(NCC#CCN2CCCCC2)cc1`, the GI50 was > 100 µM (inactive) in the test with A498; > 100 µM (inactive) in the test with A549; 57.5 µM (inactive) in the test with ACHN; > 100 µM (inactive) in the test with HOP-62; > 100 µM (inactive) in the test on Hs-578T; 26.8 µM (inactive) with K562. Also, the GI50 in the test with KM12 is > 100 µM (inactive); with Malme-3M, > 100 µM (inactive); in the test on NCI-H226 it was > 100 µM (inactive); in the test on OVCAR-5, 83.6 µM (inactive); in the test on RXF 393 it was > 100 µM (inactive); in the test on SK-MEL-2, > 100 µM (inactive). The values for the GI50 in the test on SK-MEL-5, in the test on SK-OV-3 and with U-251 were 38.5 µM (inactive), > 100 µM (inactive) and > 100 µM (inactive), respectively.
In the case of `CC(C(=O)n1ccnc1)N1c2ccccc2Sc2ccccc21` (configuration not stated), the GI50 with A498 is 47.2 µM (inactive); in the test with A549, > 100 µM (inactive); in the test with ACHN, 83.2 µM (inactive); in the test on HOP-62, 67.5 µM (inactive); with Hs-578T it was > 100 µM (inactive); in the test on K562, 91.2 µM (inactive). For the same compound, the GI50 with KM12 was 71.3 µM (inactive); in the test with Malme-3M, 83.6 µM (inactive); in the test with NCI-H226, 61.9 µM (inactive); with NCI-H460 it was 92 µM (inactive); in the test on OVCAR-5, 65.3 µM (inactive); with RXF 393 it was > 100 µM (inactive). Also, the GI50 is > 100 µM (inactive) in the test with SK-MEL-2; 35 µM (inactive) in the test on SK-MEL-5; 97.7 µM (inactive) with SK-OV-3; > 100 µM (inactive) with TK-10; 64.4 µM (inactive) in the test with U-251; 79.4 µM (inactive) in the test on UACC-257.
`O=C(NCCCCCCCCNC(=O)c1cc(-c2ccccc2)nc2ccccc12)c1cc(-c2ccccc2)nc2ccccc12`: the GI50 in the test with A498 was > 100 µM (inactive); with A549, > 100 µM (inactive); in the test on ACHN, > 100 µM (inactive); with CAKI-1, > 100 µM (inactive); with HOP-62 it was 38.8 µM (inactive); with Hs-578T, 28.7 µM (inactive). The GI50 was > 100 µM (inactive) with K562; > 100 µM (inactive) with Malme-3M; > 100 µM (inactive) in the test on NCI-H226; > 100 µM (inactive) with NCI-H460; > 100 µM (inactive) in the test on OVCAR-5; 2.48 µM (inactive) with RXF 393. Also, the GI50 is > 100 µM (inactive) in the test on SK-MEL-5; > 100 µM (inactive) with SK-OV-3; > 100 µM (inactive) in the test on TK-10; 35.3 µM (inactive) with U-251; > 100 µM (inactive) in the test with UACC-257.
Take `COc1cc2c(cc1OC)C(=O)C1(C2)[C@H](c2ccccc2)C2C(=O)c3cc(OC)c(OC)cc3C2[C@H]1c1ccccc1` (some centres not stated): the GI50 was > 100 µM (inactive) in the test on A498; 31 µM (inactive) in the test with A549; 25.8 µM (inactive) in the test on ACHN; 0.259 µM (active) in the test with CAKI-1; > 100 µM (inactive) with HOP-62; > 100 µM (inactive) in the test with Hs-578T. In addition, the GI50 is > 100 µM (inactive) in the test on K562; > 100 µM (inactive) in the test on KM12; > 100 µM (inactive) with Malme-3M; > 100 µM (inactive) in the test with NCI-H226; 49.1 µM (inactive) in the test on NCI-H460; > 100 µM (inactive) with OVCAR-5. For the same compound, the GI50 is 63.5 µM (inactive) with RXF 393; > 100 µM (inactive) with SK-MEL-5; > 100 µM (inactive) in the test on SK-OV-3; > 100 µM (inactive) with TK-10; > 100 µM (inactive) with U-251; > 100 µM (inactive) in the test with UACC-257.
For the compound `COC(=O)CC(C)(N[S+]([O-])c1ccc(C)cc1)c1ccccc1` (configuration not stated), the GI50 in the test with A498, with A549, with ACHN, with HOP-62, with Hs-578T and with K562 was > 100 µM (inactive) each time. Besides, the GI50 with KM12, in the test on Malme-3M, with NCI-H226, with NCI-H460, in the test on OVCAR-5 and with RXF 393 was > 100 µM (inactive) in each case. The GI50 in the test on SK-MEL-2, with SK-MEL-5, with SK-OV-3, with TK-10, with U-251 and in the test with UACC-257 was > 100 µM (inactive) each time.
For `O=C(O)CC(Sc1ccccc1)c1ccccc1` (configuration not stated), the GI50 in the test with A498, in the test on A549, in the test on ACHN, in the test on CAKI-1, with HOP-62 and in the test on Hs-578T was > 100 µM (inactive) throughout. The GI50 with K562, with KM12, in the test on Malme-3M, in the test with NCI-H226, with OVCAR-5 and in the test with RXF 393 was > 100 µM (inactive) each time. Besides, the GI50 in the test on SK-MEL-2, in the test on SK-MEL-5, with SK-OV-3, in the test on TK-10 and with U-251 was > 100 µM (inactive) each time.
Take `COC1CC(C)(NC(=O)C(F)(F)F)C2OC(c3ccccc3)OCC2O1` (configuration not stated): the GI50 with A498, in the test on A549, in the test with ACHN, with CAKI-1, in the test on HOP-62 and with Hs-578T was > 100 µM (inactive) each time. The GI50 with K562, in the test with KM12, with Malme-3M, in the test with NCI-H226, in the test on NCI-H460 and with OVCAR-5 was > 100 µM (inactive) throughout. Moreover, the GI50 in the test with RXF 393, in the test on SK-MEL-5, in the test with SK-OV-3, in the test with TK-10, in the test with U-251 and in the test with UACC-257 was > 100 µM (inactive) each time.
Take `CC(C)CC1c2[nH]c3ccccc3c2C[C@H]2C(=O)NC(COC(C)(C)C)C(=O)N12` (some centres not stated): the GI50 in the test with A498 is 30.3 µM (inactive); in the test on A549, 31.9 µM (inactive); in the test on ACHN, 26.8 µM (inactive); in the test on CAKI-1 it was 28.2 µM (inactive); with HOP-62 it was 46.2 µM (inactive); in the test on Hs-578T it was 13.3 µM (inactive). Also, the GI50 in the test on K562 was 31.7 µM (inactive); in the test with KM12 it was 24.1 µM (inactive); with Malme-3M, 19.6 µM (inactive); in the test with NCI-H226, 33.2 µM (inactive); in the test with OVCAR-5, 23.6 µM (inactive); in the test on RXF 393, 14.7 µM (inactive). Also, the GI50 in the test on SK-MEL-2 was 19.9 µM (inactive); in the test on SK-MEL-5 it was 21.8 µM (inactive); with SK-OV-3 it was > 100 µM (inactive); in the test with TK-10 it was 23 µM (inactive); in the test on U-251 it was 20.4 µM (inactive); with UACC-257 it was 19 µM (inactive).

By GI50 is commonly meant the concentration that inhibits growth by half.

The record behind these values is ChEMBL document CHEMBL1201862, “PubChem BioAssay data set” (2004).
